Assay results taken from US20110015068A1, “Herbicidal Compositions Comprising Pyroxasulfone V” (BASF SE, priority 2008, published 2011).
Like-named read-outs stand apart in the source and are kept apart here.

Assays:
[1] = tested on: Matricaria inermis; assay: post-emergence greenhouse test, MATIN; type: in vivo; details: 20 DAT
From the text: (§1) For the post-emergence treatment, the test plants were first grown to a height of 3 to 20 cm, depending on the plant habit, and only then treated. Here, the herbicidal compositions were suspended or emulsified in water as distribution medium and sprayed using finely distributing nozzles.
(§2) The respective herbicides A and/or safener were formulated as 10% by weight strength suspension concentrate and introduced to the spray liquor with the amount of solvent system used for applying the active compound. Herbicide B and/or safener were used as commercially available formulations and introduced to the spray liquor with the amount of solvent system used for applying the active compound. In the examples, the solvent used was water.
(§3) The test period extended over 21 days. During this time, the plants were tended, and their response to the treatments with active compound was evaluated.
(§4) The evaluation for the damage caused by the chemical compositions was carried out using a scale from 0 to 100%, compared to the untreated control plants. Here, 0 means no damage and 100 means complete destruction of the plants.

[2] = tested on: Setaria faberii; assay: pre-emergence greenhouse test, SETFA; type: in vivo; details: Setaria faberi, read-out: observed % activity; for inhibition at 25 g/ha: 25 g ai/ha; for inhibition at 50 g/ha: 50 g ai/ha
From the text: (§5) For the pre-emergence treatment, directly after sowing the active compounds, which had been suspended or emulsified in water, were applied by means of finely distributed nozzles. The containers were irrigated gently to promote germination and growth and subsequently covered with transparent plastic hoods until plant had rooted. This cover caused uniform germination of the tests plants, unless this was adversely affected by active compounds.
as §2, §3, §4

[3] = tested on: Setaria italica; assay: post-emergence greenhouse test, SETIT; type: in vivo; details: Setaria italica, read-out: observed % activity; for inhibition at 50 g/ha: 50 g ai/ha; for inhibition at 100 g/ha: 100 g ai/ha
From the text: as §1, §2, §3, §4

[4] = tested on: Matricaria inermis; assay: pre-emergence greenhouse test, MATIN; type: in vivo; details: Matricaria, read-out: observed % activity; for inhibition at 25 g/ha: 25 g ai/ha; for inhibition at 50 g/ha: 50 g ai/ha
From the text: as §5, §2, §3, §4

[5] = tested on: Setaria lutescens; assay: post-emergence greenhouse test, SETLU; type: in vivo; details: Setaria pumila, 13 g ai/ha, read-out: observed % activity
From the text: as §1, §2, §3, §4

[6] = tested on: Alopecurus myosuroides; assay: post-emergence greenhouse test, ALOMY; type: in vivo; details: for observed activity in % destruction: Table 3; for inhibition at 13 g/ha / inhibition at 100 g/ha: Alopecurus myosuroides, read-out: observed % activity; for inhibition at 13 g/ha: 13 g ai/ha
From the text: as §1, §2, §3, §4

[7] = tested on: Kochia scoparia; assay: post-emergence greenhouse test, KCHSC; type: in vivo; details: Bassia scoparia, read-out: observed % activity; for inhibition at 13 g/ha: 13 g ai/ha; for inhibition at 100 g/ha: 100 g ai/ha
From the text: as §1, §2, §3, §4

[8] = tested on: harmful plants; details: known from Y. Yamaji et al., 2006; cited from earlier work
[9] = tested on: Echinochloa crus-galli; assay: post-emergence greenhouse test, ECHCG; type: in vivo; details: for inhibition at 13 g/ha: Echinochloa crus-galli, 13 g ai/ha, read-out: observed % activity
From the text: as §1, §2, §3, §4

[10] = tested on: Ambrosia artemisifolia; assay: pre-emergence greenhouse test, AMBEL; type: in vivo; details: Ambrosia, read-out: observed % activity; for inhibition at 25 g/ha: 25 g ai/ha; for inhibition at 50 g/ha: 50 g ai/ha
From the text: as §5, §2, §3, §4

[11] = tested on: Chenopodium album; assay: post-emergence greenhouse test, CHEAL; type: in vivo; details: for inhibition at 13 g/ha / inhibition at 50 g/ha: Chenopodium album, read-out: observed % activity; for inhibition at 13 g/ha: 13 g ai/ha; for inhibition at 50 g/ha: 50 g ai/ha
From the text: as §1, §2, §3, §4

[12] = tested on: Setaria faberii; assay: post-emergence greenhouse test, SETFA; type: in vivo; details: 50 g ai/ha, 20 DAT
From the text: as §1, §2, §3, §4

[13] = tested on: Lolium multiflorum; assay: post-emergence greenhouse test, LOLMU; type: in vivo; details: 20 DAT
From the text: as §1, §2, §3, §4

[14] = tested on: Xanthium strumarium; assay: post-emergence greenhouse test, XANST; type: in vivo; details: Xanthium strumarium, read-out: observed % activity; for inhibition at 13 g/ha: 13 g ai/ha; for inhibition at 25 g/ha: 25 g ai/ha; for inhibition at 100 g/ha: 100 g ai/ha
From the text: as §1, §2, §3, §4

[15] = tested on: Avena fatua; assay: post-emergence greenhouse test, AVEFA; type: in vivo; details: 50 g ai/ha, 20 DAT, Table 3
From the text: as §1, §2, §3, §4

[16] = tested on: Sorghum halepense; assay: post-emergence greenhouse test, SORHA; type: in vivo; details: Sorghum halepense, 50 g ai/ha, read-out: observed % activity
From the text: as §1, §2, §3, §4

[17] = tested on: Galium aparine; assay: pre-emergence greenhouse test, GALAP; type: in vivo; details: Galium aparine, read-out: observed % activity; for inhibition at 25 g/ha: 25 g ai/ha; for inhibition at 50 g/ha: 50 g ai/ha
From the text: as §5, §2, §3, §4

[18] = tested on: Alopecurus myosuroides; assay: pre-emergence greenhouse test, ALOMY; type: in vivo; details: Alopecurus myosuroides, 50 g ai/ha, read-out: observed % activity
From the text: as §5, §2, §3, §4

[19] = tested on: Solanum nigrum; assay: post-emergence greenhouse test, SOLNI; type: in vivo; details: Solanum nigrum, read-out: observed % activity; for inhibition at 13 g/ha: 13 g ai/ha; for inhibition at 100 g/ha: 100 g ai/ha
From the text: as §1, §2, §3, §4

[20] = tested on: Kochia scoparia; assay: pre-emergence greenhouse test, KCHSC; type: in vivo; details: Bassia scoparia, 25 g ai/ha, read-out: observed % activity
From the text: as §5, §2, §3, §4

[21] = tested on: Sorghum halepense; assay: pre-emergence greenhouse test, SORHA; type: in vivo; details: Sorghum halepense, 25 g ai/ha, read-out: observed % activity
From the text: as §5, §2, §3, §4

What does the source list for Cn1nc(C(F)(F)F)c(CS(=O)(=O)C2=NOC(C)(C)C2)c1OC(F)F [pyroxasulfone, 3-[5-(difluoromethoxy)-1-methyl-3-(trifluoromethyl)pyrazol-4-ylmethylsulfonyl]-4,5-dihydro-5,5-dimethyl-1,2-oxazole]?
observed activity in % destruction ([1]; 12.5 g ai/ha, Table 3): 0%; observed activity in % destruction ([1]; 25 g ai/ha, Table 3): 0%; observed activity in % destruction ([1]; 25 g ai/ha, Table 4): 0%; inhibition at 25 g/ha ([2]; 192 h, 8 DAT): 85%; inhibition at 50 g/ha ([2]; 192 h, 8 DAT): 90%; inhibition at 25 g/ha ([2]; 480 h, 20 DAT): 98%; inhibition at 50 g/ha ([2]; 480 h, 20 DAT): 98%; inhibition at 50 g/ha ([3]; 192 h, 8 DAT): 25%; inhibition at 100 g/ha ([3]; 192 h, 8 DAT): 45%; inhibition at 50 g/ha ([3]; 480 h, 20 DAT): 75%; inhibition at 100 g/ha ([3]; 480 h, 20 DAT): 80%; inhibition at 25 g/ha ([4]; 192 h, 8 DAT): 0%; inhibition at 50 g/ha ([4]; 192 h, 8 DAT): 20%; inhibition at 25 g/ha ([4]; 480 h, 20 DAT): 60%; inhibition at 50 g/ha ([4]; 480 h, 20 DAT): 85%; inhibition at 13 g/ha ([5]; 192 h, 8 DAT): 0%; inhibition at 13 g/ha ([5]; 480 h, 20 DAT): 65%; observed activity in % destruction ([6]; 50 g ai/ha, 20 DAT): 55%; observed activity in % destruction ([6]; 100 g ai/ha, 20 DAT): 80%; inhibition at 13 g/ha ([6]; 192 h, 8 DAT): 0%; inhibition at 100 g/ha ([6]; 192 h, 100 g ai/ha, 8 DAT): 40%; inhibition at 13 g/ha ([6]; 480 h, 20 DAT): 15%; inhibition at 100 g/ha ([6]; 480 h, 100 g ai/ha, 20 DAT): 75%; inhibition at 13 g/ha ([7]; 192 h, 8 DAT): 60%; inhibition at 100 g/ha ([7]; 192 h, 8 DAT): 60%; inhibition at 13 g/ha ([7]; 480 h, 20 DAT): 50%; inhibition at 100 g/ha ([7]; 480 h, 20 DAT): 70%; post-emergence activity [8]: poor; observed activity in % destruction ([9]; 50 g ai/ha, 20 DAT, Table 3): 80%; inhibition at 13 g/ha ([9]; 192 h, 8 DAT): 25%; inhibition at 13 g/ha ([9]; 480 h, 20 DAT): 80%; inhibition at 25 g/ha ([10]; 192 h, 8 DAT): 40%; inhibition at 50 g/ha ([10]; 192 h, 8 DAT): 50%; inhibition at 25 g/ha ([10]; 480 h, 20 DAT): 65%; inhibition at 50 g/ha ([10]; 480 h, 20 DAT): 80%; observed activity in % destruction ([11]; 12.5 g ai/ha, 20 DAT, Table 3): 35%; observed activity in % destruction ([11]; 25 g ai/ha, 20 DAT, Table 4): 45%; inhibition at 13 g/ha ([11]; 192 h, 8 DAT): 35%; inhibition at 50 g/ha ([11]; 192 h, 8 DAT): 60%; inhibition at 13 g/ha ([11]; 480 h, 20 DAT): 25%; inhibition at 50 g/ha ([11]; 480 h, 20 DAT): 65%; observed activity in % destruction ([12]; Table 3): 85%; observed activity in % destruction ([12]; Table 4): 85%; observed activity in % destruction ([13]; 12.5 g ai/ha, Table 3): 55%; observed activity in % destruction ([13]; 25 g ai/ha, Table 3): 55%; observed activity in % destruction ([13]; 50 g ai/ha, Table 4): 55%; inhibition at 13 g/ha ([14]; 192 h, 8 DAT): 0%; inhibition at 25 g/ha ([14]; 192 h, 8 DAT): 20%; inhibition at 100 g/ha ([14]; 192 h, 8 DAT): 25%; inhibition at 13 g/ha ([14]; 480 h, 20 DAT): 0%; inhibition at 25 g/ha ([14]; 480 h, 20 DAT): 25%; inhibition at 100 g/ha ([14]; 480 h, 20 DAT): 55%; observed activity in % destruction [15]: 75%; inhibition at 50 g/ha ([16]; 192 h, 8 DAT): 65%; inhibition at 50 g/ha ([16]; 480 h, 20 DAT): 90%; inhibition at 25 g/ha ([17]; 192 h, 8 DAT): 50%; inhibition at 50 g/ha ([17]; 192 h, 8 DAT): 70%; inhibition at 25 g/ha ([17]; 480 h, 20 DAT): 80%; inhibition at 50 g/ha ([17]; 480 h, 20 DAT): 90%; inhibition at 50 g/ha ([18]; 192 h, 8 DAT): 90%; inhibition at 50 g/ha ([18]; 480 h, 20 DAT): 98%; inhibition at 13 g/ha ([19]; 192 h, 8 DAT): 75%; inhibition at 100 g/ha ([19]; 192 h, 8 DAT): 75%; inhibition at 13 g/ha ([19]; 480 h, 20 DAT): 75%; inhibition at 100 g/ha ([19]; 480 h, 20 DAT): 90%; inhibition at 25 g/ha ([20]; 192 h, 8 DAT): 40%; inhibition at 25 g/ha ([20]; 480 h, 20 DAT): 98%; inhibition at 25 g/ha ([21]; 192 h, 8 DAT): 75%; inhibition at 25 g/ha ([21]; 480 h, 20 DAT): 95%
